From patent US9247741B2, “Use of macrocyclic picolinamides as fungicides” (DOW AGROSCIENCES LLC, priority 2013, dated 2016)
Like-named read-outs stand apart in the source and are kept apart here.

Key:
Assay type in all cases: in vivo
Erysiphe cichoracearum = test: Powdery mildew of cucumber (ERYSCI) disease control; settings: Golovinomyces cichoracearum, 24 h, 1 Day Protectant, read-out: ERYSCI disease control rating
Experimental: Technical grades of materials were dissolved in acetone, which were then mixed with nine volumes of water containing 110 ppm Triton X-100. The fungicide solutions were applied onto wheat seedlings using an automated booth sprayer to run-off. All sprayed plants were allowed to air dry prior to further handling. All fungicides were evaluated using the aforementioned method for their activity vs. all target diseases. Wheat leaf blotch and brown rust activity were also evaluated using track spray applications, in which case the fungicides were formulated as EC formulations, containing 0.1% Trycol 5941 in the spray solutions. Wheat plants (variety Yuma) were grown from seed in a greenhouse in 50% mineral soil/50% soil-less Metro mix until the first leaf was fully emerged, with 7-10 seedlings per pot. These plants were inoculated with an aqueous spore suspension of Septoria tritici either prior to or after fungicide treatments. After inoculation the plants were kept in 100% relative humidity (one day in a dark dew chamber followed by two to three days in a lighted dew chamber at 20° C.) to permit spores to germinate and infect the leaf. The plants were then transferred to a greenhouse set at 20° C. for disease to develop. When disease symptoms were fully expressed on the l^st leaves of untreated plants, infection levels were assessed on a scale of 0 to 100 percent disease severity. Percent disease control was calculated using the ratio of disease severity on treated plants relative to untreated plants. Evaluation of Fungicidal Activity: Powdery Mildew of Cucumber (Erysiphe cichoracearum; Bayer Code […]) Cucumber seedlings (variety Bush Pickle) were grown in soil-less Metro mix, with one plant per pot, and used in the test when 12 to 14 days old. Plants were inoculated with a spore suspension 24 hr following fungicide treatments. After inoculation the plants remained in the greenhouse set at 20° C. until disease was fully expressed. Fungicide formulation, application and disease assessment on the sprayed leaves followed the procedures as described in the Example A.

[1] = test system: Mycosphaerella graminicola; Anamorph: Septoria tritici; test: Leaf blotch of wheat (SEPTTR) disease control on wheat seedlings; settings: Zymoseptoria tritici, wheat; for pest or weed control at 121.5 g/ha: 121.5 g/H (low volume track spray); for pest or weed control at 100 ppm: 100 ppm (high volume)
Experimental: Evaluation of Fungicidal Activity: Leaf Blotch of Wheat (Mycosphaerella graminicola; Anamorph: Septoria tritici; Bayer Code […]) Technical grades of materials were dissolved in acetone, which were then mixed with nine volumes of water containing 110 ppm Triton X-100. The fungicide solutions were applied onto wheat seedlings using an automated booth sprayer to run-off. All sprayed plants were allowed to air dry prior to further handling. All fungicides were evaluated using the aforementioned method for their activity vs. all target diseases. Wheat leaf blotch and brown rust activity were also evaluated using track spray applications, in which case the fungicides were formulated as EC formulations, containing 0.1% Trycol 5941 in the spray solutions. Wheat plants (variety Yuma) were grown from seed in a greenhouse in 50% mineral soil/50% soil-less Metro mix until the first leaf was fully emerged, with 7-10 seedlings per pot. These plants were inoculated with an aqueous spore suspension of Septoria tritici either prior to or after fungicide treatments. After inoculation the plants were kept in 100% relative humidity (one day in a dark dew chamber followed by two to three days in a lighted dew chamber at 20° C.) to permit spores to germinate and infect the leaf. The plants were then transferred to a greenhouse set at 20° C. for disease to develop. When disease symptoms were fully expressed on the l^st leaves of untreated plants, infection levels were assessed on a scale of 0 to 100 percent disease severity. Percent disease control was calculated using the ratio of disease severity on treated plants relative to untreated plants.

[2] = test system: Magnaporthe grisea; Anamorph: Pyricularia oryzae; settings: 1 Day Protectant, 100 ppm, rice
Cercospora beticola = test: Leaf spot of sugar beets (CERCBE) disease control; settings: 24 h, 1 Day Protectant, sugar beet, read-out: CERCBE disease control rating
Experimental: Technical grades of materials were dissolved in acetone, which were then mixed with nine volumes of water containing 110 ppm Triton X-100. The fungicide solutions were applied onto wheat seedlings using an automated booth sprayer to run-off. All sprayed plants were allowed to air dry prior to further handling. All fungicides were evaluated using the aforementioned method for their activity vs. all target diseases. Wheat leaf blotch and brown rust activity were also evaluated using track spray applications, in which case the fungicides were formulated as EC formulations, containing 0.1% Trycol 5941 in the spray solutions. Wheat plants (variety Yuma) were grown from seed in a greenhouse in 50% mineral soil/50% soil-less Metro mix until the first leaf was fully emerged, with 7-10 seedlings per pot. These plants were inoculated with an aqueous spore suspension of Septoria tritici either prior to or after fungicide treatments. After inoculation the plants were kept in 100% relative humidity (one day in a dark dew chamber followed by two to three days in a lighted dew chamber at 20° C.) to permit spores to germinate and infect the leaf. The plants were then transferred to a greenhouse set at 20° C. for disease to develop. When disease symptoms were fully expressed on the l^st leaves of untreated plants, infection levels were assessed on a scale of 0 to 100 percent disease severity. Percent disease control was calculated using the ratio of disease severity on treated plants relative to untreated plants. Evaluation of Fungicidal Activity: Leaf Spot of Sugar Beets (Cercospora beticola; Bayer Code CERCBE) Sugar beet plants (variety HH88) were grown in soil-less Metro mix and trimmed regularly to maintain a uniform plant size prior to test. Plants were inoculated with a spore suspension 24 hr after fungicide treatments. Inoculated plants were kept in a dew chamber at 22° C. for 48 hr then incubated in a greenhouse set at 24° C. under a clear plastic hood with bottom ventilation until disease symptoms were fully expressed. Fungicide formulation, application and disease assessment on the sprayed leaves followed the procedures as described in the Example A.

[3] = 24 h, 1 Day Protectant, read-out: SEPTTR 1DP disease control rating
[4] = 72 h, 3 Day Curative, read-out: SEPTTR 3DC disease control rating

Row | Compound | pest or weed control at 100 ppm (Erysiphe cichoracearum) [%] | pest or weed control at 121.5 g/ha [1, 3] [%] | pest or weed control at 121.5 g/ha [1, 4] [%] | PYRIOR disease control rating [2] | pest or weed control at 100 ppm (Cercospora beticola) [%] | pest or weed control at 100 ppm [1, 3] [%] | pest or weed control at 100 ppm [1, 4] [%]
1 | CCCC[C@H]1[C@H](C)OC(=O)[C@@H](NC(=O)c2nccc(OC)c2OCOC(C)=O)CCC[C@@H]1Oc1ccccc1 [Compound 33] | > 70 | > 70 | > 70 | A (>70) | > 70 | – | –
2 | CCCC[C@H]1[C@H](C)OC(=O)[C@@H](NC(=O)c2nccc(OC)c2OCOC(C)=O)CCC[C@@H]1OCC1CC1 [Compound 73] | < 70 | > 70 | > 70 | A (>70) | > 70 | – | –
3 | CCCO[C@H]1CCC[C@H](NC(=O)c2nccc(OC)c2OC(C)=O)C(=O)O[C@@H](C)[C@@H]1CCC(C)C [Compound 74, 2-(((3S,7S,8S,9S)-8-isopentyl-9-methyl-2-oxo-7-propoxyoxonan-3-yl)carbamoyl)-4-methoxypyridin-3-yl acetate] | > 70 | > 70 | > 70 | A (>70) | > 70 | – | –
4 | CCCO[C@H]1CCC[C@H](NC(=O)c2nccc(OC)c2OC(C)=O)C(=O)O[C@@H](C)[C@@H]1Cc1ccccc1 [Compound 70] | < 70 | > 70 | > 70 | A (>70) | > 70 | > 70 | > 70
5 | COc1ccnc(C(=O)N[C@H]2CCC[C@H](Oc3ccccc3)[C@@H](CCC(C)C)[C@H](C)OC2=O)c1OCOC(C)=O [Compound 40] | > 70 | > 70 | > 70 | A (>70) | > 70 | – | –
6 | COc1ccnc(C(=O)N[C@H]2CCC[C@H](Oc3ccccc3)[C@@H](CCC(C)C)[C@H](C)OC2=O)c1OC(C)=O [Compound 36] | > 70 | > 70 | > 70 | – | > 70 | – | –
7 | COc1ccnc(C(=O)N[C@H]2CCC[C@H](OCC3CC3)[C@@H](Cc3ccc(F)cc3)[C@H](C)OC2=O)c1OCOC(C)=O [Compound 61] | < 70 | > 70 | > 70 | A (>70) | > 70 | – | –
8 | CCCO[C@H]1CCC[C@H](NC(=O)c2nccc(OC)c2OCOC(C)=O)C(=O)O[C@@H](C)[C@@H]1CCC(C)C [Compound 25, ((2-(((3S,7S,8S,9S)-8-isopentyl-9-methyl-2-oxo-7-propoxyoxonan-3-yl)carbamoyl)-4-methoxypyridin-3-yl)oxy)methyl acetate] | < 70 | < 70 | > 70 | – | > 70 | – | –
